Holding throughout (test): PTP1B and TCPTP Inhibition Assay
Holding throughout (conditions): pH 6.3; 22 °C

The target of assay [1] is Tyrosine-protein phosphatase non-receptor type 2 [V121L] (Homo sapiens, UniProt P17706, V121L).
The target in assay [2] is T1, Tyrosine-protein phosphatase non-receptor type 2 (Homo sapiens, UniProt P17706).
T1 sequence (P17706 whole entry): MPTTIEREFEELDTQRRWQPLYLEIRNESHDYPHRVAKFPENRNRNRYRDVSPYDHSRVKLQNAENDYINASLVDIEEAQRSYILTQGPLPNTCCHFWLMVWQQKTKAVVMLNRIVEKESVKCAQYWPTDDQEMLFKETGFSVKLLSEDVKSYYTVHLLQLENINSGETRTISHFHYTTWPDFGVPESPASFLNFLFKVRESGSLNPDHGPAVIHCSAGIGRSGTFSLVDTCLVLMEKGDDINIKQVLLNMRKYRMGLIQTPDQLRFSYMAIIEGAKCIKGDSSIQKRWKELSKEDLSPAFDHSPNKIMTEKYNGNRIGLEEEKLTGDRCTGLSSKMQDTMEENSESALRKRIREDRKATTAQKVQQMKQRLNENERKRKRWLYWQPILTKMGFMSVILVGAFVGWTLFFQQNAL

In assay [3] the target is T2, Tyrosine-protein phosphatase non-receptor type 1 [1-298] (Homo sapiens, UniProt P18031).
T2 construct: 1-298
T2 sequence (P18031 whole entry): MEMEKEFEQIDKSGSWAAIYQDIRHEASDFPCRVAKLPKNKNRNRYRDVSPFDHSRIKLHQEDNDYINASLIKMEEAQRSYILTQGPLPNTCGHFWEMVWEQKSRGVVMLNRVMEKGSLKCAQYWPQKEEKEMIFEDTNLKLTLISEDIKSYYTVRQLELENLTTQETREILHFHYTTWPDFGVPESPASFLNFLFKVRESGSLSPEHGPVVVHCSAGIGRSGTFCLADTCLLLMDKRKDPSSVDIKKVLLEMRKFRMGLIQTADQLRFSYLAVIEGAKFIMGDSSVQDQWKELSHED

Assay [4] has as its target Tyrosine-protein phosphatase non-receptor type 1 [L119V] (Homo sapiens, UniProt P18031, L119V).

The record followed here is BindingDB's records for doi:10.1074/jbc.M511827200 (Merck Frosst Center For Therapeutic Research, 2006).

Tyrosine-protein phosphatase non-receptor type 2 [V121L], sequence (P17706 as listed by the source V121L): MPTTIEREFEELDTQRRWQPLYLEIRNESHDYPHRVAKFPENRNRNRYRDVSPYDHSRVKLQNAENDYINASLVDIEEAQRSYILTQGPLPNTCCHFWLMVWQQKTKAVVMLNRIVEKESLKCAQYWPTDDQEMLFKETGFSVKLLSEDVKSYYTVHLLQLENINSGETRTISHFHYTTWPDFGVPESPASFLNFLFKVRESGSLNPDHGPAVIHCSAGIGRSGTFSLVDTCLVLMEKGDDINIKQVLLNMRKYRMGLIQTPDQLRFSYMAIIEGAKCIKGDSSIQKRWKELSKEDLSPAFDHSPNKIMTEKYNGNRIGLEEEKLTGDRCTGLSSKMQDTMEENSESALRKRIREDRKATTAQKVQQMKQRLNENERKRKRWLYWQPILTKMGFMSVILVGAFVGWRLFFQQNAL
Tyrosine-protein phosphatase non-receptor type 1 [L119V], sequence (P18031 1-298 L119V): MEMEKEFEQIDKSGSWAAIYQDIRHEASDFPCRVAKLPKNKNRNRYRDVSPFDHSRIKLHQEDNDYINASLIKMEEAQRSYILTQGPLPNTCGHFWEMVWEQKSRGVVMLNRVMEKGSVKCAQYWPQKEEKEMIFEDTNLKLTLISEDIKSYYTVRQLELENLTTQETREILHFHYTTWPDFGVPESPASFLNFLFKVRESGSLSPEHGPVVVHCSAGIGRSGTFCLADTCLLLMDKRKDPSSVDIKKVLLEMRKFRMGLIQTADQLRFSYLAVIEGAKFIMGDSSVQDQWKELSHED

In general, IC50 refers to the concentration that gives 50% inhibition. Turning to `COC(=O)c1ccc([C@@](C/C=C/c2ccccc2)(Cc2ccc(C(F)(F)P(=O)(O)O)cc2)n2nnc3ccccc32)cc1` [({4-[(4E)-2-(1H-1,2,3-benzotriazol-1-yl)-2-[4-(methoxycarbonyl)phenyl]-5-phenylpent-4-en-1-yl]phenyl}difluoromethyl)phosphonic acid], the figures for the IC50 in assay [1] and in assay [2] were 24 nM and 87 nM, respectively.

`O=P(O)(O)C(F)(F)c1ccc(CC(C/C=C/c2ccccc2)(c2ccccc2)n2nnc3ccccc32)cc1` (stereo not drawn) [({4-[(4E)-2-(1H-1,2,3-benzotriazol-1-yl)-2,5-diphenylpent-4-en-1-yl]phenyl}difluoromethyl)phosphonic acid]: the values for the IC50 in assay [3] and in assay [2] were 109 nM and 95 nM, respectively.

Consider `Cc1noc(-c2ccc(C(C/C=C/c3ccccc3)(Cc3ccc(C(F)(F)P(=O)(O)O)cc3)C(=O)c3ccc(F)cc3)cc2)n1` (stereo not drawn) [[difluoro({4-[3-(4-fluorophenyl)-2-[4-(3-methyl-1,2,4-oxadiazol-5-yl)phenyl]-3-oxo-2-[(2E)-3-phenylprop-2-en-1-yl]propyl]phenyl})methyl]phosphonic acid], for which the IC50 in assay [1] stood at 138 nM; in assay [4], 1900 nM; in assay [3], 163 nM; in assay [2], 1600 nM.
